{"source": "patent US8765433B2", "about": "“Alcohol dehydrogenases (ADH) useful for fermentive production of lower alkyl alcohols” (priority 2009, dated 2014)", "key": {"[1]": {"target": "T1, Thermus sp. ATN1 ADH (TADH), SEQ ID NO: 33 (Thermus sp. ATN1, UniProt B2ZRE3)", "T1 sequence (B2ZRE3 1-347)": "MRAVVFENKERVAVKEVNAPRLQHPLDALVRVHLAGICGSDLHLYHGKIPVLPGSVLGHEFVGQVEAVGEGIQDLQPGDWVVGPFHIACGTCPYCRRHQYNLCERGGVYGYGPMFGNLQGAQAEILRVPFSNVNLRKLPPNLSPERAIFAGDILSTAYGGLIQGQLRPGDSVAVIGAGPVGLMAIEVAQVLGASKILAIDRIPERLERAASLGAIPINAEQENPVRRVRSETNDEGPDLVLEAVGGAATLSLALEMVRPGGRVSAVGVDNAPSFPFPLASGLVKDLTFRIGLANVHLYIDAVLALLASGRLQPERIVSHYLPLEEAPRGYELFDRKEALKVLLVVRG", "test": "isobutyraldehyde reduction kinetics (A340, initial rates)", "assay_type": "biochemical", "details": "relative to SadB"}, "[2]": {"target": "T2, Rattus norvegicus ADH1 (RnADH1), SEQ ID NO: 32 (Rattus norvegicus, UniProt P06757)", "T2 construct": "hexa-histidine (pBADHisA) (N); made in house; host or cells: E. coli (BL21-CodonPlus or a proprietary E. coli strain)", "T2 sequence (P06757 whole entry)": "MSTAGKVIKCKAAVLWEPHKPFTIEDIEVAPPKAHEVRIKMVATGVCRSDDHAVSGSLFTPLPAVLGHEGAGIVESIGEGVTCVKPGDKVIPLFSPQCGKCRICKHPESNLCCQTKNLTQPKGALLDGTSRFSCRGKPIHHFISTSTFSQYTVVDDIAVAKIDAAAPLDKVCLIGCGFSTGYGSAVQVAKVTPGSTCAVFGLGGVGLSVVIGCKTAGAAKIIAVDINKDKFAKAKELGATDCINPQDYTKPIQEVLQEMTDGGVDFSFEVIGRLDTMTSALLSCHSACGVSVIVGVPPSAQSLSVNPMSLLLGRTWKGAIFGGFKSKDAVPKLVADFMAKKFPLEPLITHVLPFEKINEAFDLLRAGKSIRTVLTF", "test": "isobutyraldehyde reduction kinetics (A340, initial rates)", "assay_type": "biochemical"}}}
{"smiles": "CC(C)C=O", "note": "[isobutyraldehyde]", "values": [{"measurement": "KM as a percentage of the same parameter for SadB", "setting": "[1]", "value": 130, "unit": "%"}, {"measurement": "kcat as a percentage of the same parameter for SadB", "setting": "[1]", "value": 14, "unit": "%"}, {"measurement": "kcat/KM as a percentage of the same parameter for SadB", "setting": "[1]", "value": 10, "unit": "%"}, {"measurement": "Km", "setting": "[2]; 30° C., pH 7.0, NADH specific, low KM precludes accurate determination, read-out: KM (Isobutanal)", "value": "≤ 3", "unit": "µM"}, {"measurement": "kcat", "setting": "[2]; isobutyraldehyde reduction, 30° C., pH 7.0, NADH specific", "value": "~5", "unit": "s⁻¹"}, {"measurement": "KM as a percentage of the same parameter for SadB", "setting": "[2]; relative to SadB", "value": "<1", "unit": "%"}, {"measurement": "kcat as a percentage of the same parameter for SadB", "setting": "[2]; relative to SadB", "value": 5, "unit": "%"}, {"measurement": "kcat/KM as a percentage of the same parameter for SadB", "setting": "[2]; relative to SadB", "value": 1588, "unit": "%"}]}
